The nature of data set [1]: Pharmacokinetics of probe drug cocktail (bupropion, midazolam) and their metabolites before and after QHS-PQ. Type of data set: in vivo, human. The following applies: for Tmax / T max: value (range); for Geometric mean ratio (90% CI) of AUC 0-t /dose / Geometric mean ratio (90% CI) of C max / Geometric mean ratio (90% CI) of CL/F / Geometric mean ratio (90% CI) of MRT: 2-day (after QHS-PQ) versus 1-day (day -14); for AUC 0-t /dose: mean ± sd. How it is done:
The chromatography was performed at 22°C. The mobile phase consisted of B (acetonitrile) and A (0.1% formic acid in water), which increased linearly from 20% B to 90% B during 7 min before column re-equilibration at a flow rate of 0.3 mL/min.
Plasma samples were subjected to a protein precipitation extraction process. A 100 μL aliquot of human plasma was mixed with 25 μL of acetonitrile and 200 μL of IS (1 μM of alprazolam, prepared in acetonitrile). The mixture was mixed and centrifuged at 3,000 g for 10 min. Aliquots (20 μL) of the solution were injected onto LC-MS analysis. […] This mixture was treated as above. […] Plasma samples were diluted with blank plasma and reanalysed when the concentration of any analyte was higher than the upper limit of quantification.
Venous blood samples (2 mL) for analysis of probe drugs and their metabolites were taken from an indwelling intravenous catheter at 0, 0.25, 0.75, 1.5, 2.0, 3.0, 4.0, 5.0, 7.0, 11.0, 24.0, 36.0, and 48.0 hours.
(§1) The peak plasma concentration (Cmax) and time-to-peak concentration (Tmax) were obtained from experimental observations. The other pharmacokinetic parameters were analysed by non-compartmental model using the program TOPFIT (version 2.0; Thomae GmbH, Germany). The area under the plasma concentration-time curve (AUC o-t ) was calculated using the linear trapezoidal rule to approximately the last point. The mean residence time (MRT) was obtained by dividing the area under the first moment-time curve (AUMC 0-t ) by the area under the curve (AUC 0-t ). Total oral body clearance (CL/F) was calculated as dose/AUC 0-t .
(§2) Results were expressed as mean ± SD. The two-tailed t-test was used for paired comparison of the pharmacokinetic parameters between the single dose and multiple doses after logarithmic transformation. Geometric mean ratios with 90% confidence intervals (CIs) were calculated after log transformation of within-subject data. The comparison of Tmax for the different treatment groups was performed using the Wilcoxon signed-rank test. The acceptable level of significance was established at P < 0.05 or P < 0.01.

The test system of another data set is PXR. The following applies: cited from earlier work.
A short description of data set [2]: Bench-top stability of QC samples in human plasma on ice. Type of data set: in vitro ADME. The note with it: human plasma on ice for at least 2 hours; difference < 15%.
Data set [3] in a line: Pharmacokinetics of QHS and its phase I/II metabolites in plasma after oral QHS-PQ (Artequick). The note with it: for AUC 0-t /dose / Cmax / MRT / CL/F: mean ± sd; for Cmax / MRT / Tmax: in vivo; for Cmax: C max; for Tmax: T max. How it is done:
The chromatography was performed at 22°C. The mobile phase consisted of acetonitrile and 5 mM aqueous ammonium acetate containing 0.1% (v/v) formic acid, delivered at a flow rate of 0.35 mL/min. The gradient chromatographic conditions were shown in the previous report. The autosampler was set at 4°C.
Plasma samples were subjected to a protein precipitation extraction process, which was performed on ice. A 100 μL aliquot of human plasma was mixed with 25 μL of acetonitrile and 200 μL of IS (1 μM of ARM, prepared in acetonitrile). The mixture was mixed and centrifuged at 3,000 g for 10 min. Aliquots (20 μL) of the solution were injected onto LC-MS analysis. […] This mixture was treated as above.
Plasma was separated by centrifugation at 3,000 g for 10 min at 4°C. The plasma was stored at -80°C until analysis.
as §1, §2

The test system of another data set is CAR1/3. The following applies: cited from earlier work.
The conditions of data set [4]: cited from earlier work.
The mark [5] stands for this setting: human, plasma, oral, row '1-day': probe cocktail before QHS-PQ (day -14).
[6] abbreviates: human, plasma, oral, row '1-day': probe cocktail before QHS-PQ (day -14), read-out: CL/F (converted).
[7] abbreviates: human, plasma, oral, row '1-day': probe cocktail before QHS-PQ (day -14), read-out: MRT.
Where [8] appears, read: human, plasma, oral, row '2-day': probe cocktail after second dose of QHS-PQ.
Setting [9] is: human, plasma, oral, row '2-day': probe cocktail after second dose of QHS-PQ, read-out: CL/F (converted).
Where [10] appears, read: human, plasma, oral, row '2-day': probe cocktail after second dose of QHS-PQ, read-out: MRT.
Setting [11] is: listed as '1-day': oral probe cocktail (bupropion 75 mg, midazolam 15 mg) on day -14, before QHS-PQ.
The mark [12] stands for this setting: listed as '1-day': probe cocktail before QHS-PQ (day -14).
The mark [13] stands for this setting: listed as '2-day': probe cocktail 1 hour after second oral dose of QHS-PQ (day 2).
[14] abbreviates: listed as '2-day': probe cocktail after second dose of QHS-PQ.
[15] abbreviates: human, po, 2-day oral QHS-PQ, value (range).

By Cmax is commonly meant the highest concentration seen after dosing. For orientation: Tmax means the time at which the peak concentration occurs. The term MRT denotes the average time that molecules of a dose stay in the body.

Like-named read-outs stand apart in the source and are kept apart here. Marks after values point to notes of the source that are not given here.

On to `Cc1ncc2n1-c1ccc(Cl)cc1C(c1ccccc1F)=NC2` [MDZ, midazolam], for which the Cmax in data set [1] (setting [5]) is 206 ± 115 nM; in data set [1] (setting [8]) it was 305 ± 115 nM. The Tmax came out at 1.3 h in data set [1] (setting [5]) and 0.8 h in data set [1] (setting [8]). The CL/F in data set [1] (setting [6]) was 18.2 mL/min/kg; in data set [1] (setting [9]), 11.7 mL/min/kg. Moreover, the results for the MRT in data set [1] (setting [7]) and in data set [1] (setting [10]) were 4.1 ± 0.7 h and 4.2 ± 0.7 h, respectively.

Consider `CC(NC(C)(C)C)C(=O)c1cccc(Cl)c1` (centres unmarked) [BUP, Bupropion], for which the Cmax was found to be 328 ± 181 nM in data set [1] (setting [5]) and 306 ± 147 nM in data set [1] (setting [8]). Also, the Tmax in data set [1] (setting [5]) amounted to 2.1 h; in data set [1] (setting [8]), 2.5 h. Moreover, the CL/F in data set [1] (setting [6]) was 62.2 mL/min/kg; in data set [1] (setting [9]), 63 mL/min/kg. The MRT in data set [1] (setting [7]) is 6.8 ± 1.9 h; in data set [1] (setting [10]) it was 6.1 ± 1.7 h.

On to (±)-hydroxybupropion [OH-BUP], for which, in data set [1], the “Geometric mean ratio (90% CI) of AUC 0-t /dose” value is 2.05 (1.83, 2.30)**; the “Geometric mean ratio (90% CI) of C max” value is given as 1.65 (1.51, 1.82)**; the “Geometric mean ratio (90% CI) of CL/F” value was 0.49 (0.43, 0.55)**; the “Geometric mean ratio (90% CI) of MRT” value is given as 1.04 (1.00, 1.07). The “AUC 0-t /dose” value in data set [1] (setting [11]) was 3.98 ± 1.45 kg·h/L. Besides, in data set [1] (setting [12]), the CL/F stood at 4.83 ± 1.83 mL/min/kg; the Cmax is 518 ± 162 nM; the MRT was determined as 19.4 ± 1.4 h; the T max is recorded as 5.2 (3.0, 11.0) h. Moreover, in data set [1] (setting [13]), the “AUC 0-t /dose” value is listed as 8.22 ± 3.43** h·kg·L^-1. Moreover, in data set [1] (setting [14]), the CL/F was 2.33 ± 0.83 mL/min/kg; the Cmax is 857 ± 245 nM; the MRT is 20.2 ± 1.5 h; the T max is on record as 7.6 (3.0, 24.0) h.

For the molecule `OCc1ncc2n1-c1ccc(Cl)cc1C(c1ccccc1F)=NC2` [OH-MDZ, α-hydroxymidazolam], in data set [1], the “Geometric mean ratio (90% CI) of AUC 0-t /dose” value is 4.99 (4.66, 5.33)**; the “Geometric mean ratio (90% CI) of C max” value is listed as 2.95 (2.44, 3.56)**; the “Geometric mean ratio (90% CI) of CL/F” value was 0.19 (0.18, 0.21)**; the “Geometric mean ratio (90% CI) of MRT” value is listed as 1.14 (1.01, 1.28). The “AUC 0-t /dose” value in data set [1] (setting [11]) was found to be 0.32 ± 0.09 kg·h/L. In data set [1] (setting [12]), the CL/F worked out at 55.2 ± 14 mL/min/kg; the Cmax came out at 82.3 ± 50.3 nM; the MRT worked out at 3.7 ± 1.0 h; the T max is 1.1 (0.3, 2.0) h. Also, in data set [1] (setting [13]), the “AUC 0-t /dose” value is 1.60 ± 0.26** h·kg·L^-1. For the same molecule, in data set [1] (setting [14]), the CL/F was determined as 10.7 ± 1.83 mL/min/kg; the Cmax stood at 243 ± 82 nM; the MRT is 4.2 ± 0.5 h; the T max was 1.5 (0.8, 3.0) h.

On to `C[C@@H]1CC[C@H]2[C@@H](C)C(=O)O[C@@H]3O[C@@]4(C)CC[C@@H]1[C@]32O4` [DeoxyQHS, Deoxyartemisinin], for which the “activity at PXR” value in the data set with PXR was “agonist”. The stability in plasma entry in data set [2] was “stable”. Moreover, the “AUC 0-t /dose” value in data set [3] (1-day (first oral dose of QHS-PQ, 1.8 mg/kg QHS plus 10.6 mg/kg piperaquine), 14 healthy Chinese, plasma) is recorded as 0.09 ± 0.05** h·kg·L^-1. Besides, the T max in data set [3] (1-day oral QHS-PQ, value (range)) is given as 2.2 (1.25, 4.0) h. In addition, in data set [3] (2-day (second daily oral dose of QHS-PQ)), the “AUC 0-t /dose” value is listed as 0.06 ± 0.04** h·kg·L^-1. In addition, in data set [3] (2-day versus 1-day oral QHS-PQ), the “Geometric mean ratio (90% CI) of AUC 0-t /dose” value is listed as 0.68 (0.58, 0.79)**; the “Geometric mean ratio (90% CI) of AUC M /AUC QHS” value is listed as 1.18 (0.97, 1.43); the “Geometric mean ratio (90% CI) of C max” value was 0.78 (0.69, 0.89)*; the “Geometric mean ratio (90% CI) of CL/F” value is given as 1.68 (1.45, 1.95)**. Besides, the “Geometric mean ratio (90% CI) of MRT” value in data set [3] (2-day versus 1-day oral QHS-PQ) is 0.89 (0.79, 0.99). Moreover, the “change of Tmax and MRT after repeated drug dosing” value in data set [3] (P > 0.05) was “did not change”. For the same molecule, in data set [3] (human, po, 1-day oral QHS-PQ), the Cmax came out at 71 ± 46.1 nM and the MRT was 7.1 ± 0.6 h. In data set [3] (human, po, 2-day oral QHS-PQ), the Cmax was found to be 55.6 ± 33.3 nM and the MRT came out at 6.2 ± 1.5 h. The Tmax in data set [3] (human, po, 1-day oral QHS-PQ, value (range)) lay in the range of 1.3 to 4 h. The Tmax in data set [3] (setting [15]) was determined as 2.3 h. In addition, the “decrease in AUC 0-t after multiple oral doses” value in data set [3] (in 13 out of 14 subjects, range 20.3-71.8%) came out at 34.7%. In data set [3] (in four subjects), the “decrease of metabolic capability AUCdeoxy-QHS/AUCQHS after the second dose” value was 41.6%. Moreover, the “increase of metabolic capability AUCdeoxy-QHS/AUCQHS after the second dose” value in data set [3] (in six subjects) is 1.6 fold. The “increase of CL/F after the second dose” value in data set [3] (second versus first oral dose of QHS-PQ) is reported as 1.7 fold. The “activity at CAR1/3” value with CAR1/3 is reported as “agonist”.

`C[C@@H]1CC[C@H]2[C@@H](C)C(=O)O[C@@H]3O[C@@]4(C)CC[C@@H]1[C@]32OO4` [QHS, Artemisinin, reference compound]: the stability in plasma entry in data set [2] was “stable”. For the same molecule, the “dose-normalized AUC, reported range” value is 0.06 to 0.31 kg·h/L in data set [4] (healthy subjects and patients who received 500 mg of QHS); 0.33 to 0.49 kg·h/L in data set [4] (infected children, dose […]). Moreover, the CL/F in data set [3] (1-day oral QHS-PQ, dose/AUC0-t) is 164 ± 138 mL/min/kg; in data set [3] (human, plasma, po, CL/F, 1-day oral QHS-PQ, dose/AUC0-t) it was 163 mL/min/kg; in data set [3] (human, plasma, po, CL/F, 2-day oral QHS-PQ), 277 mL/min/kg. Further, in data set [3] (P > 0.05), the “change of Cmax, Tmax and MRT after repeated drug dosing” value was “did not change”. Besides, in data set [3] (after the first dose, range 6.9-122.7%), the “inter-individual variability (%CV) for AUC 0-t” value stood at 43.5%. Further, the Cmax worked out at 304 ± 192 nM in data set [3] (human, po, 1-day oral QHS-PQ) and 221 ± 118 nM in data set [3] (human, po, 2-day oral QHS-PQ). The MRT was 3.2 ± 0.9 h in data set [3] (human, po, 1-day oral QHS-PQ) and 2.9 ± 0.9 h in data set [3] (human, po, 2-day oral QHS-PQ). Also, in data set [3] (setting [15]), the Tmax was 1.4 h. In data set [3] (oral QHS-PQ, two consecutive days), the “decrease in AUC 0-t, second oral dose compared with the first dose” value stood at 35.2%.
